Tested on: TNF-α and IL-1 secretion
Assay: investigated assays, not specified which (TNF-α/IL-1 secretion in human PBMC and in mouse peritoneal macrophages, LPS-induced TNF-α/IL-1 secretion in mice, writhing assay, LPS-induced shock in mice)
Settings: assays not named; active = IC-50 20 μM or lower (PBMC), 10 μM or lower (macrophages), 30% or more inhibition of TNF-α at 10 mg/kg, analgetic activity as acetylsalicylic acid or better, survival 40% or more at 30 mg/kg
Description: Human peripheral blood mononuclear cells (PBMC) were prepared from heparinized whole blood after separating PBMC on Ficoll-Paque™Plus (Amersham-Pharmacia). To determine the TNF-α level, 3.5-5×10^4 cells were cultivated in a total volume of 200 μl for 18 to 24 hours on microtitre plates with a flat bottom (96 wells, Falcon) in RPMI 1640 medium, into which there were added 10% FBS (Fetal Bovine Serum, Biowhittaker) previously inactivated at 54° C./30 min, 100 units/ml of penicillin, […] of streptomycin and 20 mM HEPES (GIBCO). The cells were incubated at 37° C. in an atmosphere with 5% CO2 and 90% humidity. […] The IL-1 level was determined in an assay under the same conditions and with the same number of cells and the same concentration of the stimulus by ELISA procedure (R&D Systems). The percentage of inhibition of TNF-α or IL-1 production was calculated by the equation: % inhibition=[1−(TS−NC)/(PC−NC)]*100. […]
In order to obtain peritoneal macrophages, Balb/C mouse strain males, age 8 to 12 weeks, were injected i.p. with 300 μg of zymosan (SIGMA) dissolved in a phosphate buffer (PBS) in a total volume of 0.1 ml/mouse. […] The TNF-α level in the cell supernatant was determined by ELISA procedure (R&D Systems, Biosource). The IL-1 level was determined in an assay identical to the assay for TNF-α by ELISA procedure (R&D Systems). […]

## Dimethyl-[3-(11-methoxy-8-oxa-1-thia-benzo[e]naphtho[3,2-h]azulene-2-ylmethoxy)-propyl]-amine [Example 7]
  activity in at least two investigated assays: show activity in at least two investigated assays
